Results on twelve molecules are retold here after paper PMC9338265, “Pathogen-selective killing by guanylate-binding proteins as a molecular mechanism leading to inflammasome signaling” (Nature Communications, 2022).

For series [1], the system named is F. novicida. Format: cell-based, Francisella novicida.
Series [2] relates to E. coli. Kind of series: Peptide and protein binding assay with SYTOX staining. Format: cell-based, Escherichia coli.
The test system of series [3] is F. novicida. In kind it is binding, Francisella novicida.
The test system of series [4] is N. meningitidis. Kind of series: Peptide and protein binding assay with SYTOX staining. Format: cell-based, Neisseria meningitidis. To be noted: for Localization to and killing of N. meningitidis (SYTOX): 10 µg/mL FITC-peptide, 1 h or 6 h.
The subject of series [5] is N. meningitidis. Kind of series: Bacterial viability assay (CFU or O.D.). Format: cell-based, Neisseria meningitidis. To be noted: 6 h.
For series [6], the system named is F. novicida.
Series [7] relates to primary mouse BMDMs. The series is described as follows: Cytotoxicity (SYTOX incorporation, LDH release). To be noted: 10 µg/ml; IncuCyte live imaging; LDH after 24 h. (LDH in the medium is a marker of cell lysis.)
Series [8] relates to human embryonic kidney cells HEK293. The series is described as follows: Cytotoxicity (SYTOX incorporation, LDH release). To be noted: 10 µg/ml; IncuCyte live imaging; LDH after 24 h.
Series [9] relates to African green monkey kidney cells Vero. Kind of series: Cytotoxicity (SYTOX incorporation, LDH release). To be noted: 10 µg/ml; IncuCyte live imaging; LDH after 24 h.
Series [10] concerns human intestinal epithelial cells HT29. Kind of series: Cytotoxicity (SYTOX incorporation, LDH release). To be noted: 10 µg/ml; IncuCyte live imaging; LDH after 24 h.
Series [11] deals with E. coli. Kind of series: Bacterial viability assay (CFU). In kind it is cell-based, Escherichia coli. To be noted: 6 h.
Series [12] relates to F. novicida. In kind it is cell-based, Francisella novicida. The source holds these as a separate data set.
Series [13] relates to F. novicida. Format: cell-based, Francisella novicida. This is another data set of the same source.
In series [14] the test system is isogenic lpxA mutant of N. meningitidis, which lacks LOS. The series is described as follows: Bacterial viability assay (O.D.). Format: cell-based, Neisseria meningitidis. The settings on record: mGBP1 protein at 0.4, 4 or 40 µM, 6 h; mutant lacking LOS.

Non-standard residues stand in square brackets, D forms with d. No end group written: not given here. *: point of attachment. FITC = O=C1OC2(c3ccc(O)cc3Oc3cc(O)ccc32)c2ccc(NC(=S)*)cc21; Ahx = NCCCCCC(=O)O

As to “{FITC}-[Ahx]LDILSAIQNPVVVVAIVGFYHTGKSYLMNKLAGKQKGFSL [FITC-GBP1^28–67]”, the “Localization to bacteria and uptake of SYTOX, F. novicida” value in [1] is “localized to and induced uptake of SYTOX in F. novicida”. The “Localization to bacteria and uptake of SYTOX, E. coli” value in [2] (10 µg/mL FITC-peptide, 1 h or 6 h) is reported as “this did not occur with E. coli”. In addition, in [3], the “Binding to F. novicida exposed to NaCl, saponin or sarcosyl before addition of peptide” value is “did not impair the binding” and the “FITC signal remaining on F. novicida already bound to peptide after exposure to NaCl, saponin or sarcosyl” value was “loss of FITC signal”. For the same molecule, the “Localization to and killing of N. meningitidis (SYTOX)” value in series [4] was “localized to and killed N. meningitidis”.

In the case of “VVVVAIVGFYHTGKSYLMNKLAGKQKGFSL [GBP1^38–67]”, in [5] (peptide at 10 µg/ml), the “Viability of N. meningitidis (percentage of CFU in relation to solvent control)” value is on record as “little or no antimicrobial activity”. The “Viability of F. novicida (percentage of CFU in relation to solvent control)” value in series [6] was “little or no antimicrobial activity”.

Regarding FYHTGKSYLMNKLAGKQKGFSL [GBP1^46–67], the “Viability of N. meningitidis (percentage of CFU in relation to solvent control)” value in series [5] (peptide at 10 µg/ml) is recorded as “little or no antimicrobial activity”. Moreover, the “Viability of F. novicida (percentage of CFU in relation to solvent control)” value in series [6] is reported as “little or no antimicrobial activity”.

For the molecule “LDILSAIQNPVVVVAIVGFYHTGKSYLMNKLAGKQKGFSL [GBP1^28–67]”, the “Cytotoxicity, SYTOX incorporation or LDH release, BMDMs” value (“Cytotoxicity … BMDMs” for short) in series [7] was “None of the peptides exhibited cytotoxicity”. For the same molecule, the “Cytotoxicity, SYTOX incorporation or LDH release, HEK293” value (shortened to “Cytotoxicity … HEK293”) in series [8] was “None of the peptides exhibited cytotoxicity”. Also, the “Cytotoxicity, SYTOX incorporation or LDH release, Vero” value (“Cytotoxicity … Vero” for short) in [9] is on record as “None of the peptides exhibited cytotoxicity”. In [10], the “Cytotoxicity, SYTOX incorporation or LDH release, HT29” value (from here on “Cytotoxicity … HT29”) is recorded as “None of the peptides exhibited cytotoxicity”. Further, in series [6] (6 h), the “half maximal inhibitory concentration (IC50), viability of F. novicida” value turned out to be 5.04 mg/L.

For LDILSAIQNPV [GBP1^28–38], the “Viability of N. meningitidis (percentage of CFU in relation to solvent control)” value in series [5] (peptide at 10 µg/ml) was “killed F. novicida and N. meningitidis similar to that observed for GBP1^28–67”. Besides, in series [11] (peptide at 10 µg/ml), the “Viability of E. coli (percentage of CFU in relation to solvent control)” value is reported as “unable to kill E. coli”. Besides, in series [6], the “Viability of F. novicida (percentage of CFU in relation to solvent control)” value is “killed F. novicida and N. meningitidis similar to that observed for GBP1^28–67”.

As to “IRILEQIAQPLVVVAIVGLYRTGKSYLMNRLAGRNHGFSL [GBP3^22–61]”, the “Morphology of F. novicida by SEM and TEM” value in series [12] is “bacterial membrane damage and bacteriolysis of F. novicida”. Also, in [6], the “Viability of F. novicida (percentage of CFU in relation to solvent control)” value was “bacterial killing in a dose-dependent manner”.

Consider “TFYKPGGYYLFLQRKQELEKKYIQTPGKG [GBP1^424–452]”, for which the “Cytotoxicity … BMDMs” value in series [7] is listed as “None of the peptides exhibited cytotoxicity”. Moreover, in series [13], the “SYTOX positive F. novicida, flow cytometry plot” value (from here on “SYTOX positive F. novicida”) turned out to be 11.4%. In addition, the “Cytotoxicity … HEK293” value in series [8] was “None of the peptides exhibited cytotoxicity”. Further, the “Cytotoxicity … Vero” value in [9] is reported as “None of the peptides exhibited cytotoxicity”. Also, in series [10], the “Cytotoxicity … HT29” value was “None of the peptides exhibited cytotoxicity”. Further, the “Viability of F. novicida (percentage of CFU in relation to solvent control)” value in series [6] is “only GBP1^28–67 and WLBU2 exhibited”.

As for LLKQGFQNESLQLRQEIEKI [GBP1^558–577], the “Cytotoxicity … BMDMs” value in series [7] was “None of the peptides exhibited cytotoxicity”. In addition, the “SYTOX positive F. novicida” value in series [13] is given as 4.7%. The “Cytotoxicity … HEK293” value in series [8] is recorded as “None of the peptides exhibited cytotoxicity”. In series [9], the “Cytotoxicity … Vero” value was “None of the peptides exhibited cytotoxicity”. Also, the “Cytotoxicity … HT29” value in [10] was “None of the peptides exhibited cytotoxicity”. For the same molecule, the “Viability of F. novicida (percentage of CFU in relation to solvent control)” value in series [6] was “only GBP1^28–67 and WLBU2 exhibited”.

For “{FITC}-[Ahx]KLIKLLDRLASRSVS [FITC-control peptide, reference compound]”, the “Localization to and killing of N. meningitidis (SYTOX)” value in series [4] is given as “this did not occur”.

In the case of “GTDENTKKFNMPRLCIRKFFPKRKCFIFDR [GBP1^209–238]”, in [7], the “Cytotoxicity … BMDMs” value is “None of the peptides exhibited cytotoxicity”. In addition, the “SYTOX positive F. novicida” value in [13] came to 9.2%. Besides, the “Cytotoxicity … HEK293” value in [8] was “None of the peptides exhibited cytotoxicity”. Further, in [9], the “Cytotoxicity … Vero” value was “None of the peptides exhibited cytotoxicity”. Moreover, the “Cytotoxicity … HT29” value in series [10] was “None of the peptides exhibited cytotoxicity”. Moreover, the “Viability of F. novicida (percentage of CFU in relation to solvent control)” value in [6] is “only GBP1^28–67 and WLBU2 exhibited”.

Regarding “RRWVRRVRRWVRRVVRVVRRWVRR [WLBU2, reference compound]”, in [13], the “SYTOX positive F. novicida” value was found to be 90.7% and the “Uptake of SYTOX by F. novicida, quantification by flow cytometry” value is “induced a significant uptake of SYTOX”. The “Morphology of F. novicida by SEM and TEM” value in [12] was “apoptosis-like blebbing and apoptosis-like bodies”. For the same molecule, in series [11] (peptide at 0.1, 1 or 10 µg/ml), the “Viability of E. coli (percentage of CFU in relation to solvent control)” value is listed as “led to death of the bacteria”. The “Viability of F. novicida (percentage of CFU in relation to solvent control)” value in series [6] was “exhibited, in a dose-dependent manner, antibacterial activity”.

B1: mGBP1 (protein, UniProt Q01514 1-589, looked up)
Guanylate-binding protein 1: MASEIHMSEPMCLIENTEAQLVINQEALRILSAITQPVVVVAIVGLYRTGKSYLMNKLAGKRTGFSLGSTVQSHTKGIWMWCVPHPKKAGQTLVLLDTEGLEDVEKGDNQNDCWIFALAVLLSSTFIYNSIGTINQQAMDQLHYVTELTDLIKSKSSPDQSDVDNSANFVGFFPIFVWTLRDFSLDLEFDGESITPDEYLETSLALRKGTDENTKKFNMPRLCIRKFFPKRKCFIFDRPGDRKQLSKLEWIQEDQLNKEFVEQVAEFTSYIFSYSGVKTLSGGITVNGPRLKSLVQTYVSAICSGELPCMENAVLTLAQIENSAAVQKAITYYEEQMNQKIHMPTETLQELLDLHRTCEREAIEVFMKNSFKDVDQKFQEELGAQLEAKRDAFVKKNMDMSSAHCSDLLEGLFAHLEEEVKQGTFYKPGGYYLFLQRKQELEKKYIQTPGKGLQAEVMLRKYFESKEDLADTLLKMDQSLTEKEKQIEMERIKAEAAEAANRALAEMQKKHEMLMEQKEQSYQEHMKQLTEKMEQERKELMAEQQRIISLKLQEQERLLKQGFQNESLQLRQEIEKIKNMPPPRSCTIL
With B1, in series [1], the “Localization to bacteria and uptake of SYTOX, F. novicida” value was “localized to and induced uptake of SYTOX in F. novicida”. For the same molecule, the “Morphology of F. novicida by SEM” value in series [12] was “disruption of the membrane integrity, membrane rupture, and expulsion of intracellular content”. Besides, the “Viability of N. meningitidis (percentage of CFU in relation to solvent control)” value in series [5] (mGBP1 protein at 0.4, 4 or 40 µM) is recorded as “killed N. meningitis in a dose-dependent manner”. For the same molecule, the “Viability of WT N. meningitidis (percentage of O.D. in relation to solvent control)” value in series [5] (mGBP1 protein at 0.4, 4 or 40 µM, WT strain) was “can kill both WT and ΔlpxA mutant strains”. For the same molecule, the “Localization to bacteria and uptake of SYTOX, E. coli” value in series [2] (40 µM mGBP1 protein, 6 h) is recorded as “this did not occur with E. coli”. In addition, the “Localization to bacteria and uptake of SYTOX, N. meningitidis” value in series [4] (40 µM mGBP1, 6 h) is “localized to N. meningitidis, resulting in the uptake of SYTOX”. Also, in series [6], the “Viability of F. novicida (percentage of CFU in relation to solvent control)” value is on record as “killed F. novicida in a dose-dependent manner”. For the same molecule, in series [14], the “Viability of N. meningitidis ΔlpxA mutant (percentage of O.D. in relation to solvent control)” value was “can kill both WT and ΔlpxA mutant strains”.
